According to US9642829B2, “Antifungal compound and uses thereof” (The University of Hong Kong, priority 2012, dated 2017):

Legend:
C. krusei = assay: Antifungal susceptibility (MIC/MFC), CLSI criteria; format: cell-based, Candida krusei; details: C. krusei ATCC; 0.5 McFarland inoculum (10^6 cells/ml)
Protocol: Antifungal activity of the small molecules was evaluated using USA standards, Clinical and Laboratory Standards Institute (CLSI) criteria. In brief, inocula from 24 h Candida cultures on Sabourauds's dextore agar were standardized to a turbidity equivalent of 0.5 McFarland standards at 520 nm with a spectrophotometer. The suspensions were further diluted in Rosewell Park Memorial Institute (RPMI) 1640 medium (Life technologies, New York, USA) to yield an inoculum concentration of approximately 0.5 1×10^3 to 2.5 1×10^3 cells/ml. Minimum inhibitory concentration (MIC) and minimum fungicidal concentration (MFC) assay was performed in 96-well plates (Iwaki, Tokyo, Japan) and each of the Candida species was exposed to a double dilution of SM21. Amphotericin B was used as a positive control. All the experiments were preformed three occasions with duplicates for all isolates. The plates were incubated at 35° C. for 48 h to evaluate MIC. In the case of Cryotococcus neoformans, reading were taken after 72 h. Aforementioned assay was performed for C. albicans ATCC 90028, C. albicans SC5314 and 10 C. albicans clinical isolates. Moreover, MIC/MFC determination was carried out for other fungal species such as C. glabrata, C. krusei, C. tropicalis, C. parapsilosis, C. neoformans, Aspergillus fumigates and Penicillium marneffei. […]

C. albicans biofilms = assay: Mono species Candida biofilm MIC, XTT assay; format: cell-based, Candida albicans
Protocol: For instance, we have previously shown the resistance of Candida biofilms against amphotericin and caspofungin. Therefore, next using standard biofilm assays we have established in our laboratory, we examined the effect of SM21 against Candida biofilms. In brief, Candida cells were grown in SDA medium at 37° C. for 18 h. Then a loopful of the yeast was inoculated into the yeast nitrogen base (YNB; Difco) medium supplemented with 50 mM glucose in a rotary shaker at 75 rpm. After overnight broth culture, the yeasts were harvested in the late exponential growth phase and washed twice with 20 ml of phosphate buffer saline (PBS; pH 7.2. 0.1 M) prior to use in the biofilm studies. Candida biofilms were developed according to a previously published protocol. In brief, washed yeast cells were resuspended in YNB supplemented with 100 mM glucose and adjusted to an optical density of 0.38 at 520 nm (1×10^7 cells/ml). The standard cell suspension was used immediately to develop biofilms on commercially available presterilized, polystyrene, 96-well plate (IWAKI, Tokyo, Japan). At first, 100 μl of standardized cell suspension (1×10^7 cells/ml) was pipetted into each well of a microtiter plate and incubated for 1.5 h at 37° C. in a shaker at 75 rpm to permit yeast adherence to the well surface (adherence phase). For controls, a well of each microtiter plate was handled in an identical fashion except that no Candida suspension was added. Following the adhesion phase, the cell suspensions were aspirated, and each well washed with 100 μl of PBS to remove loosely adherent cells. 200 μl of YNB with 100 mM glucose were then pipetted into each of the washed wells and the plates incubated at 37° C. in a shaker at 75 rpm for 24 or 48 h. After biofilm growth phase microscopic examination of the cultures were performed to rule out contamination. Then, the suspending medium was aspirated and biofilms were washed with 100 μl PBS to remove the nonadherent cells. The stock solutions were diluted twofold with RPMI 1640 supplemented with 2% glucose to obtain SM21 concentration from 100 to 0.2 μg/ml drug concentrations. In parallel, other antifungal agents such as caspofungin (100 to 0.1 μg/ml) and amphotericin B (240 μg/ml to 0.225 μg/ml) was also prepared as describe above. A total of 100 μl of drug solution was added to the microtiter plate containing Candida biofilms. Biofilms were then incubated at 37° C. for 24 h with the antifungals and afterwards metabolic activity of fungal cells was determined by the XTT [2,3-bis(2-methoxy-4-nitro-5-sulfophenyl)-2H-tetrazolium-5-carboxanilide sodium salt] assay (17, 28). Candida biofilm MIC90 was defined as the lowest drug concentration with 90% reduction in opacity compared with the drug free control. Each experiment was repeated three times with four replicates.

With `CN(C)c1ccc(/C=C/c2cc(C(C)(C)C)[o+]c(C(C)(C)C)c2)cc1.[O-][Cl+3]([O-])([O-])[O-]` [SM21] the “Susceptibility (MIC90)” value (C. krusei) was 0.4 µg/mL, the “Biofilm MIC90” value (C. albicans biofilms; 24 h C. albicans biofilms, 24 h drug exposure, XTT) was 3.2 µg/mL and the “Minimum inhibitory concentration of 48 h Candida biofilms” value (C. albicans biofilms; 48 h C. albicans biofilms) was 25 µg/mL.
